The values that follow come from publication PMC10582583, “The novel cyclophilin inhibitor C105SR reduces hepatic ischaemia–reperfusion injury via mitoprotection” (JHEP Reports, 2023).

Series [1] relates to isolated mouse liver mitochondria. In words: Calcium retention capacity (CRC) assay in isolated liver mitochondria. In kind it is biochemical. The note with it: for mitochondrial CRC vs maximum effect of CsA: 5 μM concentration and above (Fig. 2E); for mitochondrial CRC vs CsA and ALV: 0.5 and 1 μM (Fig. 2E); for maximal mitochondrial CRC, diastereoisomer vs racemic mixture: Fig. 2E; for mitochondrial CRC vs control: diastereoisomers at 100 μM (Fig. 2C); for EC50: isolated mouse liver mitochondria.

The test system of series [2] is AML-12 cells. Description: Caspase 3/7 activity assay, hypoxia/reoxygenation. In kind it is cell-based, mouse. As to conditions: applied during hypoxia and reoxygenation; 4 h hypoxia, 2 h reoxygenation. As for the experimental part: Necrosis is the major cause of cell death during hepatic IRI. However, mPTP opening also leads to apoptosis resulting from mitochondrial swelling, rupture of the outer mitochondrial membrane and subsequent release of cytochrome C into the cytosol.[20] We investigated whether C105SR and C110SR protected against mPTP opening-induced apoptotic cell death.
Mouse serum analysis. Blood was collected at 6 h of reperfusion. Alanine aminotransferase (ALT) and aspartate aminotransferase (AST) activities were measured on an automated analyzer in the Biochemistry Department of Henri Mondor Hospital.
Histological Analysis. Hematoxylin and eosin staining was performed on 4-μm thick formalin-fixed paraffin-embedded tissue sections. […] Necrosis areas were quantified with […]
TUNEL Assay. […] The number of TUNEL-positive cells were quantified using QuPath on slides scanned at x20 magnification using a virtual slide scanning system (Axio scan7/ZEN slidescan).
Caspase 3/7 activity assay. Caspase 3/7 activity was assessed using the commercially Caspase-Glo® 3/7 assay (Promega, Madison, Wisconsin) following the manufacturer’s instructions.
Briefly, Caspase-Glo® 3/7 Reagent was incubated with the cells and the caspase3/7 activity was determined by measuring luminescence with a luminometer (Berthold). Caspase3/7 activity was expressed as a percentage of the untreated control. […]

Series [3] has as its system AML-12 cells. Description: Cell viability by MTT assay, hypoxia/reoxygenation. In kind it is cell-based, mouse. As to conditions: 4 h hypoxia, 2 h reoxygenation; for cell viability (MTT): applied during hypoxia and reoxygenation. As for the experimental part:
As expected, cells subjected to hypoxia/reoxygenation were characterised by greater LDH release and reduced cell viability as compared to untreated controls (Fig. 4A and 4B). […]
Hypoxia/reoxygenation (H/R) in vitro model. […]
Collection (ATCC) and maintained in William’S E culture medium at 37°C with 5% CO2.When indicated, cells were incubated in phosphate buffered saline at 37°C in a hypoxic chamber filled with 94% N2, 1% O2, 5% CO2 for 4 h to mimic ischemic conditions. Then, cells were transferred to a CO2 incubator at 37°C in regular DMEM/F12 culture medium for 1 or 2 h under normoxic conditions (74% N2, 21% O2, 5% CO2). SMCypIs or vehicle (DMSO) were added during the hypoxia period, during the reoxygenation period, or during both. CsA and ALV were used as positive controls for hepatic protection against H/R injury. […]
Cell viability assays. […]
dimethylthiazol-2-yl)-2,5-diphenyltetrazolium bromide (MTT) assay, cells were incubated with a solution of MTT (0.5 mg/mL) for 2 h at 37°C. The medium was then removed and 50 µL DMSO was added to each well. Optical density of purple formazan product was measured at 550 nm. Cell viability was expressed as a percentage of the untreated control.

For series [4], the system named is AML-12 cells. In words: mPTP opening, CoCl2-calcein AM fluorescence-quenching assay, hypoxia/reoxygenation. It is filed as cell-based, mouse. As to conditions: for prevention of mPTP opening (loss of calcein fluorescence): 1 μM, 4 h hypoxia, 1 h reoxygenation. The method, then:
We next evaluated the ability of compounds C105SR and C110SR to inhibit mPTP opening in cells. The hepatocyte cell line AML-12 was subjected to 4 h of hypoxia followed by 1 h of reoxygenation and mPTP opening was monitored using the CoCl2-calcein-acetoxymethyl ester (AM) fluorescence-quenching method.[19] Calcein-AM is a membrane permeable fluorophore which passively diffuses in all subcellular compartments including mitochondria. In the cell, the AM group of the fluorophore is cleaved by ubiquitous intracellular esterases, generating a hydrophilic product that is retained within the cell. The cells are then loaded with the divalent cobalt cation (Co^2+), which quenches calcein fluorescence in all subcellular compartments except the mitochondrial matrix, because the inner mitochondrial membrane is impermeable to cobalt. However, when mPTP is open, cobalt enters mitochondria and quenches mitochondrial calcein fluorescence. […]
Hypoxia/reoxygenation (H/R) in vitro model. AML-12 mouse hepatocyte line was obtained from American Type Culture Collection (ATCC) and maintained in DMEM/F12 culture medium at 37°C with 5% CO2. HepaRG human hepatocyte line was obtained from American Type Culture Collection (ATCC) and maintained in William’S E culture medium at 37°C with 5% CO2.When indicated, cells were incubated in phosphate buffered saline at 37°C in a hypoxic chamber filled with 94% N2, 1% O2, 5% CO2 for 4 h to mimic ischemic conditions. Then, cells were transferred to a CO2 incubator at 37°C in regular DMEM/F12 culture medium for 1 or 2 h under normoxic conditions (74% N2, 21% O2, 5% CO2). SMCypIs or vehicle (DMSO) were added during the hypoxia period, during the reoxygenation period, or during both. CsA and ALV were used as positive controls for hepatic protection against H/R injury.
Monitoring of mPTP opening. mPTP opening was monitored in AML-12 cells using the CoCl2-calcein AM fluorescence-quenching assay. Cells were loaded with 1 µM calcein-AM (green) for 20 min. Then, 1 mM CoCl2 was added and cells were incubated for another 10 min. Cells were washed and subjected to 4 h of hypoxia followed by 1 h of reoxygenation. Calcein fluorescence was measured using a spectrofluorimeter at excitation and emission wavelengths of 485 nm and 535 nm, respectively. Images were acquired using a standard inverted fluorescence microscope (Zeiss Axio, […]
media during the entire H/R period. Images shown are representative images of 12-18 images. […]
Optical density of purple formazan product was measured at 550 nm. […]

For orientation: EC50 means the concentration at which the effect is half-maximal. For the compound `COc1ccc(Br)cc1[C@H](NC(=O)NCc1ccc(N)cc1)C(=O)N1CCC[C@@H]1c1cccc2ccsc12` [Compound C110SR, 1-(4-aminobenzyl)-3-((S)-2-((R)-2-(benzo[b]thiophen-7-yl)pyrrolidin-1-yl)-1-(5-bromo-2-methoxyphenyl)-2-oxoethyl)urea], in series [1], the “mitochondrial CRC vs maximum effect of CsA” value is “stronger effect than the maximum effect achieved by CsA”; the “mitochondrial CRC vs CsA and ALV” value is “comparable to those of CsA and ALV”; the “maximal mitochondrial CRC, diastereoisomer vs racemic mixture” value was 670 ± 52 nmol Ca2+/mg of mitochondrial; the “mitochondrial CRC vs control” value was “greater than control mitochondrial CRC”. The EC50 in series [1] was found to be 0.14 ± 0.02 µM. Moreover, the “protection against hypoxia/reoxygenation-induced cell apoptosis (caspase 3/7 activity)” value with AML-12 cells [2] was “protected against hypoxia/reoxygenation-induced cell apoptosis”. The “increase in cell viability” value in the series with AML-12 cells [3] (0.5 μM) is listed as “not effective”. Further, the “cell viability (MTT)” value with AML-12 cells [3] is listed as “increased cell viability”. Moreover, the “prevention of mPTP opening (loss of calcein fluorescence)” value with AML-12 cells [4] was “substantially prevented”.
For orientation: viability means the share of living cells, or the viability signal relative to a control. On to `COc1ccc(Br)cc1[C@H](NC(=O)NCc1ccc2c(c1)CCCN2)C(=O)N1CCC[C@@H]1c1cccc2ccsc12` [Compound C105SR, 1-((S)-2-((R)-2-(benzo[b]thiophen-7-yl)pyrrolidin-1-yl)-1-(5-bromo-2-methoxyphenyl)-2-oxoethyl)-3-((1,2,3,4-tetrahydroquinolin-6-yl)methyl)urea], for which, in series [1], the “mitochondrial CRC vs maximum effect of CsA” value is listed as “stronger effect than the maximum effect achieved by CsA”; the “mitochondrial CRC vs CsA and ALV” value was “comparable to those of CsA and ALV”; the “maximal mitochondrial CRC, diastereoisomer vs racemic mixture” value is given as 595 ± 38 nmol Ca2+/mg of mitochondrial; the “mitochondrial CRC vs control” value is “greater than control mitochondrial CRC”. For the same compound, the EC50 in series [1] was found to be 0.05 ± 0.02 µM. Also, in the series with AML-12 cells [2], the “protection against hypoxia/reoxygenation-induced cell apoptosis (caspase 3/7 activity)” value is “protected against hypoxia/reoxygenation-induced cell apoptosis”. Further, the viability at 0.5 µM in the series on AML-12 cells [3] (Mus musculus, AML12, 0.5 μM, read-out: increase in cell viability) was about 75%. Moreover, the “cell viability (MTT)” value in the series with AML-12 cells [3] was “increased cell viability”. The “inhibition of mPTP opening” value with AML-12 cells [4] (0.5 μM) is given as “inhibited”. The “prevention of mPTP opening (loss of calcein fluorescence)” value in the series with AML-12 cells [4] is recorded as “substantially prevented”.
